Data taken from patent US7888343B2, “Substituted, bicyclic 8-pyrrolidinoxanthines, and methods for their use as inhibitors of dipeptidyl peptidase” (Sanofi-A Ventis Deutschland GmbH, priority 2004, dated 2011).
Where a name gives a salt, the structure may show the parent alone.

Target: T1, DPP-IV from porcine kidney (Sus scrofa, UniProt P22411)
T1 construct: DPP-IV from porcine kidney (Sigma, Munich); purchased Sigma, Munich; host or cells: porcine kidney (tissue-derived enzyme)
Assay: Measurement of the DPP-IV activity (fluorimetric H-Ala-Pro-AFC conversion)
Type: biochemical
Conditions: DPP-IV 1 mU/ml, H-Ala-Pro-AFC 15 μM, Tris/HCl 40 mM pH 7.4, room temperature
Method: The reaction was carried out at room temperature for various times (typically 10 min) and stopped at the end of the reaction by adding 20 μl of ZnCl2(1 M). […] When inhibitors were added, the added buffer volume was adapted so that a total volume of 200 μl was maintained for the assay mixture.

T1 sequence (P22411 whole entry): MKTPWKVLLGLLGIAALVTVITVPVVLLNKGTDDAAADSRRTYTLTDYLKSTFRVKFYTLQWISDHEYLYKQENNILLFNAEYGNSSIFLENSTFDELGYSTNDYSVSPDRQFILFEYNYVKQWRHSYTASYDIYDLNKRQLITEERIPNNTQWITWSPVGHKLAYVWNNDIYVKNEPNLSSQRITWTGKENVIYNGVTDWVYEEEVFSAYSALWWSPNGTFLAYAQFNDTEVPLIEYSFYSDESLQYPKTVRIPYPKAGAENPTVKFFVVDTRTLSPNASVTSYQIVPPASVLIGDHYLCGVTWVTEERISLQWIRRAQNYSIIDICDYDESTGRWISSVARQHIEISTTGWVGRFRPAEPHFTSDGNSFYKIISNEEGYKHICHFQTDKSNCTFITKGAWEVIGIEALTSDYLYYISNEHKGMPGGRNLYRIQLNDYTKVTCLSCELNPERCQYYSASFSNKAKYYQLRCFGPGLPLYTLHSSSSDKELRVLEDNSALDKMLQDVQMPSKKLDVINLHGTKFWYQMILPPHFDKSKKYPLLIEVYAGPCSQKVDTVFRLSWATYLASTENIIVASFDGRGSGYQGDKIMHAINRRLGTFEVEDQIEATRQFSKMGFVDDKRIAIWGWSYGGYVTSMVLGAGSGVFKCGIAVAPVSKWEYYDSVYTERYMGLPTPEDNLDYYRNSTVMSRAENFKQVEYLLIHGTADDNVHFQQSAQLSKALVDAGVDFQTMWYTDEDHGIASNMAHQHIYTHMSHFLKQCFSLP

CC(C)=CCn1c(N2CCC3CNCC32)nc2c1c(=O)n(CC(O)c1ccccc1)c(=O)n2C (stereo not shown) [Example 14, 8-(Hexahydropyrrolo[3,4-b]pyrrol-1-yl)-1-(2-hydroxy-2-phenylethyl)-3-methyl-7-(3-methyl-but-2-enyl)-3,7-dihydropurine-2,6-dione hydrochloride] and CC(C)=CCn1c(N2CCC3CNCC32)nc2c1c(=O)n(CC(=O)c1ccccc1Cl)c(=O)n2C (stereo not shown) [Example 41, 1-[2-(2-Chlorophenyl)-2-oxo-ethyl]-8-(hexahydropyrrolo[3,4-b]pyrrol-1-yl)-3-methyl-7-(3-methylbut-2-enyl)-3,7-dihydropurine-2,6-dione trifluoroacetate] are within 1.5-fold of each other in IC50: 12 nM for the first, 10.5 nM for the second.

Going from CC(C)=CCn1c(N2CCC3CNCC32)nc2c1c(=O)n(CC(=O)c1cccc(Cl)c1)c(=O)n2C (stereo not shown) [Example 42, 1-[2-(3-Chlorophenyl)-2-oxo-ethyl]-8-(hexahydropyrrolo[3,4-b]pyrrol-1-yl)-3-methyl-7-(3-methylbut-2-enyl)-3,7-dihydropurine-2,6-dione] to CCn1c(=O)n(CC(=O)c2ccccc2)c(=O)c2c1nc(N1CCC3CNCC31)n2CC=C(C)C (stereo not shown) [Example 15, 3-Ethyl-8-(hexahydropyrrolo[3,4-b]pyrrol-1-yl)-7-(3-methylbut-2-enyl)-1-(2-oxo-2-phenyl-ethyl)-3,7-dihydropurine-2,6-dione hydrochloride], the IC50 falls from 10 nM to 5 nM (2-fold). The second is the more potent here.

First: CC(C)=CCn1c(N2CCC3CNCC32)nc2c1c(=O)n(Cc1nc3cc(F)ccc3s1)c(=O)n2C (stereo not shown) [Example 16, 1-(5-Fluorobenzothiazol-2-ylmethyl)-8-(hexahydropyrrolo[3,4-b]pyrrol 1-yl)-3-methyl-7-(3-methylbut-2-enyl)-3,7-dihydropurine-2,6-dione hydrochloride]
Second: CC(C)=CCn1c(N2CCC3CNCC32)nc2c1c(=O)n(CCc1ccccc1)c(=O)n2C1CC1 (stereo not shown) [Example 21, 3-Cyclopropyl-8-(hexahydropyrrolo[3,4-b]pyrrol-1-yl)-7-(3-methylbut-2-enyl)-1-phenethyl-3,7-dihydropurine-2,6-dione hydrochloride]
The IC50 of the first is 3.7-fold lower: 19 nM for the first, 71 nM for the second.

First: Cn1c(=O)n(CC(=O)c2ccccc2)c(=O)c2c1nc(N1CCC3CNCC31)n2Cc1ccccc1 (stereo not shown) [Example 5, 7-Benzyl-8-(hexahydropyrrolo[3,4-b]pyrrol-1-yl)-3-methyl-1-(2-oxo-2-phenylethyl)-3,7-dihydropurine-2,6-dione hydrochloride]
Second: CC(C)=CCn1c(N2CCC3CNCC32)nc2c1c(=O)n(CC(=O)c1ccccc1)c(=O)n2CC(F)(F)F (stereo not shown) [Example 35, 8-(Hexahydropyrrolo[3,4-b]pyrrol-1-yl)-7-(3-methylbut-2-enyl)-1-(2-oxo-2-phenylethyl)-3-(2,2,2-trifluoroethyl)-3,7-dihydropurine-2,6-dione hydrochloride]
The IC50 of the first is 6.9-fold lower: 7.2 nM for the first, 50 nM for the second.

Cn1c(=O)c2c(nc(N3CCC4CNCC43)n2Cc2ccccc2Cl)n(C)c1=O (stereo not shown) [Example 97, 7-(2-Chlorobenzyl)-8-(hexahydropyrrolo[3,4-b]pyrrol-1-yl)-1,3-dimethyl-3,7-dihydropurine-2,6-dione trifluoroacetate] gave an IC50 of 20 nM.

System: not given
Assay: not given
Conditions: not given

For CC(C)=CCn1c(N2CC[C@@H]3CN(C)C[C@@H]32)nc2c1c(=O)n(CC(=O)c1ccccc1)c(=O)n2C (relative stereo) [Example 2, 3-Methyl-7-(3-methylbut-2-enyl)-8-(cis-5-methylhexahydropyrrolo[3,4-b]pyrrole-1-yl)-1-(2-oxo-2-phenylethyl)-3,7-dihydropurine-2,6-dione], the melting point was 73.5 °C.
